# According to patent publication US4542140A, “Pyridinyl substituted ketenemercaptal derivatives” (American Home Products Corporation, priority 1983, dated 1985):
# How the values were obtained:
# [1] = test system: spontaneous gastric acid secretion; test: inhibition of spontaneous gastric acid secretion in cannulated rats; type: in vivo, Male albino Sprague Dawley rats
# Protocol: Male albino Sprague Dawley rats (200-300 g), purchased from Canadian Breeding Laboratories, were employed. Two gastric cannulas were implanted surgically in each rat as described by L. E. Borella and F. Herr, Gastroenterology, 61, 345 (1971). The rats were used two to three weeks after the operation at a time when their food intake and weight gain were similar to the food intake and weight gain of unoperated litter mates. Before testing, the rats were deprived of food for 18 hours, but they had available a solution of 0.2% sodium chloride in 5% glucose for drinking ad libitum. Prior to each experiment, the plugs of the stomach cannulas of each rat were removed and the debris present in the stomach was flushed out with tepid saline passed through the cannulas. Thereafter, the lumen of the stomach was continuously perfused with saline introduced into the stomach through the forestomach cannula at a rate of 0.8-1.2 ml/min. The stomach perfusate flowing out of the antrum cannula was collected in 60 minutes intervals and the total acid in each collection was titrated with 0.05N sodium hydroxide employing phenol red as an indicator. After a period of acclimatization of about 60 to 90 minutes, the acid output values were recorded. On the basis of the hourly acid output, the rats were divided into equal groups so that the average acid output of all groups was similar. Saline (vehicle) or saline suspensions or solutions of the test compounds were administered intragastrically (i.g.) through the forestomach cannula, after having closed the antral cannula. During the one hour absorption period, the stomachs of the rats were not perfused. After the absorption period, perfusion of the stomachs was resumed, and the perfusates were collected hourly for three hours. The average post-treatment hourly acid outputs of the test compound groups were compared to that of the saline group and the percent inhibition of acid output was calculated. Multiple statistical comparisons between groups was done using Dunnet's t test, C. W. Dunnet, Journal of American Statistical Association, 50, 1096 (1955).
# [2] = test system: gastric lesions induced by absolute alcohol; test: gastric lesions induced in rats by absolute alcohol; type: in vivo, male albino rats (Sprague-Dawley); details: i.g., 30 minutes before absolute ethanol
# Protocol: More explicitly exemplified, the beneficial effects were evaluated as follows: food was withheld from male albino rats (180-220 g, Sprague-Dawley, Canadian Breeding Laboratories) for 18 to 19 hours, but water was freely available. Test compounds were administered intragastrically (i.g.) by stomach gavage, 30 minutes before absolute ethanol. The absolute ethanol (one milliliter) also was administered by gavage. One hour after the alcohol treatment, the rats were killed and their stomachs removed for observation. Clotted blood was removed from the surface of the mucosa, and the macroscopic lesions counted. The average scores of the treatment groups were compared individually to that of the control group and percent inhibitions of lesion formation calculated. The data was analyzed statistically according to Dunnett's t test for multiple comparisons between groups.
# The results obtained when 2-cyano-3-(methylthio)-3-[[3-pyridinyl)-methyl]thio]-2-propenoic acid methyl ester, described in example 1, was tested according to the previous method is as follows.
# [3] = 50 mg/kg/i.g., tested as hydrochloric acid addition salt
smiles,measurement,setting,value
"COC(=O)C(C#N)=C(SC)SCc1cccnc1 [Example 1, 2-Cyano-3-(methylthio)-3-[[(3-pyridinyl)methyl]thio]-2-propenoic Acid Methyl Ester]",Percent Inhibition of Acid Output,[1]; 25 mg/kg/i.g.,85%
same,"Gastric Ulcers Formed, % Inhibition",[2]; 5 mg/kg,61%
same,"Gastric Ulcers Formed, Score (mean ± S.E.)",[2]; 5 mg/kg,6.7 ± 2.2
same,"Gastric Ulcers Formed, % Inhibition",[2]; 10 mg/kg,100%
same,"Gastric Ulcers Formed, Score (mean ± S.E.)",[2]; 10 mg/kg,0
"COC(=O)C(C#N)=C(SC)SCc1cnccn1 [Example 4, 2-cyano-3-(methylthio)-3-[[(3-pyrazinyl)methyl]-thio]-2-propenoic acid methyl ester]",Percent Inhibition of Acid Output,[1]; [3],88%
"CSC(SCc1cccnc1)=C(C#N)C(N)=O [Example 12, 2-Cyano-3-(methylthio)-3-[[(3-pyridinyl)methyl]thio]-2-propenamide]",Percent Inhibition of Acid Output,[1]; 25 mg/kg/i.g.,27%
"COC(=O)C(C#N)=C(SC)Sc1ccnnc1C [Example 3, 2-cyano-3-[(3-methyl-4-pyridazinyl)thio]-3-(methylthio)-2-propenoic acid methyl ester]",Percent Inhibition of Acid Output,[1]; [3],90%
"COC(=O)C(C#N)=C(SC)SCc1ccc[n+]([O-])c1 [Example 2, 2-Cyano-3-(methylthio)-3-[[(3-pyridinyl)methyl]thio]-2-propenoic Acid Methyl Ester N-oxide]",Percent Inhibition of Acid Output,[1]; 25 mg/kg/i.g.,60%
"COC(=O)C(C#N)=C(SCc1cccnc1)SCc1cccnc1 [1 (R^2 = 3-pyridinylmethyl thio), 2-cyano-3,3-bis[[(3-pyridinyl)methyl]thio]-2-propenoic acid methyl ester]",Percent Inhibition of Acid Output,[1]; 25 mg/kg/i.g.,38%
"CSC(SCc1ccncc1)=C(C#N)C(N)=O [Example 13, 2-Cyano-3-(methylthio)-3-[[(4-pyridinyl)methyl]thio]-2-propenamide]",Percent Inhibition of Acid Output,[1]; 50 mg/kg/i.g.,59%
